Results: patent publication US20100069316A1, “TREATMENT FOR MULTIPLE MYELOMA” (Ares Trading S.A., priority 2006, published 2010)

Legend:
Assay type in all cases: cell-based, human
[1] = tested on: XG12 myeloma cell line; assay: Cell proliferation assay (tritiated thymidine incorporation), XG12; conditions: Homo sapiens, XG12, alone or with fixed Velcade/Melphalan
Protocol: (§1) Myeloma cells were harvested in the exponential growth phase (at day 3 after culture passage when the cell concentration is around 5×10^5 cells/ml). Cells were washed twice, cultured for 3 hours in RPMI1640 and 10% FCS, washed twice. This makes it possible to remove cell-bound growth factors (in particular recombinant IL-6). Then cells are plated in 96-well flat-bottomed microplates at various concentrations depending on their doubling time: • 5×10^3 cells/well in 100 μl for the cell lines: XG-1, XG-7 • 10^4 cells/well in […] for the cell lines: XG-2, XG-4, XG-6, XG-11, PRMI8226, L363 • 2×10^4 cells/well in 100 μl for the cell lines: XG-3, XG-12, XG-13, XG-14, XG-19, XG-20
(§2) The culture medium used were: • PRMI1640, 10% FCS and 0.5 ng/ml of IL-6 for XG-1, XG-2, XG-3, XG-4, XG-6, XG-7, XG-11, XG-12, XG-13, XG-19, XG-20 cells • X-VIVO20 and 0.5 ng/ml IL-6 for XG-14 cells • PRMI1640 and 10% FCS for RPMI8226 and L363 cells
(§3) The diluted compounds, DMSO or control culture medium were added in 100 μl at the start of the culture. Three culture wells were done for one compound dilution and the experiments were done twice (finally six culture wells for one compound dilution).
(§4) Cells were cultured for 4 days. Eight hours before the end of the culture, 0.5 μCi of tritiated thymidine were added in 50 μl of RPMI1640 and 10% FCS. Cells were then extracted with a cell collector and the thymidine incorporation was determined using a beta cell counter.
(§5) For each experiment, the mean tritiated thymidine incorporations (mean values determined on three culture wells) were plotted against the logarithmic concentrations of the compound. The curves were fitted with exponential regression, which was determined using the concentrations defining the inhibition response (usually 3-4 concentrations).
(§6) The concentrations yielding 50% and 90% inhibition of the proliferation of myeloma cells were determined with these regression curves.
The concentration yielding 10% (IC10) or 50% (IC50) inhibition of the myeloma cell lines were determined and the data are listed in Table 2.
Compound A was tested in combination with melphalan or Velcade. Increasing concentration of compound A (0, 0.01, 0.03, 0.12, 0.37, 1.1, 3.1, 10, 30 μM) were applied on 4 myeloma cell lines alone or in combination with Velcade or melphalan at concentration yielding around 10% or 50% inhibition.

[2] = tested on: XG-12 myeloma cell line; assay: Cell numeration, XG-12; conditions: day 3 of culture
Protocol: (§7) Two myeloma cell lines (XG-3 and XG-12) that are sensitive to compound A (1-(4-{4-[4-(4-chlorophenyl)-pyrimidin-2-ylamino]-benzoyl}-piperazin-1-yl)-ethanone) were selected for the study. To assess the effect of compound A on myeloma cell survival, the percentage apoptotic cells was determined using binding of annexin V to apoptotic cells. The effect of compound A on the cell cycle was assessed by evaluating the percentage of cells in the S phase of the cell cycle by incorporation of BrdU-FITC. Apoptosis, cell cycle and cell numeration were evaluated daily on a four day culture period on the cell lines using the IC10, IC50 and I90 respective doses of compound A.

[3] = tested on: XG-3 myeloma cell line; assay: Cell numeration, XG-3; conditions: day 3 of culture
Protocol: as §7

[4] = tested on: 10 myeloma cell lines; assay: Cell proliferation assay, mean over 10 myeloma cell lines; conditions: mean determined on 10 myeloma cell lines
Protocol: as §1, §2, §3, §4, §5, §6

**Q.** With CC(=O)N1CCN(C(=O)c2ccc(Nc3nccc(-c4ccc(Cl)cc4)n3)cc2)CC1 [Compound A, 1-(4-{4-[4-(4-Chloro-phenyl)-pyrimidin-2-ylamino]-benzoyl}-piperazin-1-yl)-ethanone] as the compound, how does the IC50 ([1]; concentration of compound A yielding 50% inhibition of proliferation, read-out: IC50) read?
**A.** 974 nM

**Q.** What about the IC90 ([1]; concentration of compound A yielding 90% inhibition of proliferation) of the same compound?
**A.** 3.92 µM

**Q.** What about the “Cells (×10^6/ml) cell counts” value ([2]; XG-12, compound A at IC50 concentration) of the same compound?
**A.** 0.35 ×10^6/ml

**Q.** And the “Cells (×10^6/ml) cell counts” value ([2]; XG-12, compound A at IC90 concentration)?
**A.** 0.11 ×10^6/ml

**Q.** What about the “Cells (×10^6/ml) cell counts” value ([3]; XG-3, compound A at IC10 concentration) of the same compound?
**A.** 0.68 ×10^6/ml

**Q.** What about the “Cells (×10^6/ml) cell counts” value ([3]; XG-3, compound A at IC50 concentration) of the same compound?
**A.** 0.47 ×10^6/ml

**Q.** And the “Cells (×10^6/ml) cell counts” value ([3]; XG-3, compound A at IC90 concentration)?
**A.** 0.29 ×10^6/ml

**Q.** And the IC50 ([4]; Homo sapiens, read-out: mean concentration yielding 50% inhibition)?
**A.** 3.3 µM

**Q.** And the “mean concentration yielding 10% inhibition” value [4]?
**A.** 1 µM

**Q.** What about the “mean concentration yielding 90% inhibition” value [4] of the same compound?
**A.** 10 µM
